As a reminder, the EC50 is the concentration giving half of the maximal effect.

Like-named read-outs stand apart in the source and are kept apart here.

The target of one series is T1, HIV-RT (Human immunodeficiency virus type 1 group M subtype B, UniProt P03366).
T1 construct: HIV-RT HIV reverse transcriptase; purchased Roboklon
Nature of the series: Primer extension assay using HIV-RT. It is filed as biochemical. To be noted: 30 min, 6 U HIV-RT, 37 °C. The protocol: Figure 6 Primer extension assay using HIV-RT (A), human polymerases α (B), β (C), and γ (D). (Figure 6A). Primer extension assay using HIV-RT (30 min, 6U). Lane 1: (+) dATP, dCTP, dGTP, and TTP with HIV-RT. Lane 2: (−) dATP, dCTP, dGTP, and TTP without HIV-RT. Lane 3: TTP. […] Lane 5: δ-(C4; C18)-d4T4P 4d. […] Lane 7: δ-(C18)-d4T4P 20. Lane 8: δ-C-(C18)-d4T4P 24. Lane 9: d4T4P. Lane 10: d4TTP. Lane 11: d4TDP. HIV-RT assay reaction conditions: 50 mM Tris–HCl (pH 8.6), 10 mM MgCl2, 40 mM KCl, 250 μM dNTPs, HIV-RT (6 U), 0.20 μM DNA hybrid, primer-template-hybrid 0.32 mM in a reaction volume of 10 μL, incubated at 37 °C for 0.5 h, 80 °C for 7 min. Primer extension assays: 50 mA, 45 w for 4 h. (Figure 6B). For human DNA polymerase α assay (60 min, 2 U): Lane 1: (+) dATP, dCTP, dGTP, and TTP with human polymerase α. Lane 2: (−) dATP, dCTP, dGTP, and TTP without human polymerase α. Lane 3: TTP. […] Lane 5: δ-(C4; C18)-d4T4P 4d. […] Lane 7: δ-(C18)-d4T4P 20. Lane 8: δ-C-(C18)-d4T4P 24. Lane 9: d4T4P. Lane 10: d4TTP. Human DNA polymerase α assay conditions: 60 mM Tris–HCl (pH 8), 5 mM Mg(OAc)2, 100 mM KCl, 1.0 mM dithiothreitol, 0.1 mM spermine, 0.01% (w/v) bovine serum albumin, 250 μM dNTPs, 2 U human polymerase α, 0.20 μM DNA hybrid, and primer-template-hybrid 0.32 mM in a reaction volume of 10 μL, incubated at 37 °C for 1 h, 80 °C for 7 min. Primer extension assays: 50 mA, 45 w for 3 h. (Figure 6C). For human DNA polymerase β assay (60 min, 2 U): Lane 1: (+) dATP, dCTP, dGTP, and TTP with human polymerase β. Lane 2: (−) dATP, dCTP, dGTP, and TTP without human polymerase β. Lane 3: TTP. […] Lane 5: δ-(C4; C18)-d4T4P 4d. […] Lane 7: δ-(C18)-d4T4P 20. Lane 8: δ-C-(C18)-d4T4P 24. Lane 9: d4T4P. Lane 10: d4TTP. Human DNA polymerase β assay conditions: 50 mM Tris–HCl (pH 8.7), 10 mM Mg(OAc)2, 100 mM KCl, 1.0 mM dithiothreitol, 0.1 mM spermine, 0.01% (w/v) bovine serum albumin, 15% glycerol, 250 μM dNTPs, 2 U human DNA polymerase β, 0.20 μM DNA hybrid, and primer-template-hybrid 0.32 mM in a reaction volume of 10 μL, incubated at 37 °C for 1 h, 80 °C for 7 min. Primer extension assays: 50 mA, 45 w for 3 h. (Figure 6D), For the human DNA polymerase γ assay (120 min, 2 U): Lane 1: (+) dATP, dCTP, dGTP, and TTP with human polymerase γ. Lane 2: (−) dATP, dCTP, dGTP, and TTP without human polymerase γ. Lane 3: TTP. […] Lane 5: δ-(C4; C18)-d4T4P 4d. […] Lane 7: δ-(C18)-d4T4P 20. Lane 8: δ-C-(C18)-d4T4P 24. Lane 9: d4T4P. Lane 10: d4TTP. Human polymerase γ assay conditions: 60 mM Tris–HCl (pH 8), 5 mM Mg(OAc)2, 1.0 mM dithiothreitol, 0.1 mM spermine, 0.01% (w/v) bovine serum albumin, 250 μM dNTPs, 2 U human polymerase γ, 0.5 μM MnCl2, 0.20 μM DNA hybrid, primer-template-hybrid 0.32 mM in a reaction volume of 10 μL, incubated at 37 °C for 2 h, 80 °C for 7 min. Primer extension assays: 50 mA, 45 w for 3 h.
HIV-RT and human polymerases α, β, and γ were bought from Roboklon and Chimerx. The fluorescent-labeled primer and template were obtained from Metabion.
For the annealing of the primer/template mixture, 40 μL of the 10 μM primer and 60 μL of the 10 μM template were incubated for 5 min at 95 °C. Then, for optimal annealing, the temperature was reduced over a period of 2 h to 20 °C and incubated again for 20 min at 20 °C.
For the primer extension, the reaction mixture was incubated for 30 min for the HIV-RT, 60 min for the human DNA polymerase α, and 120 min for the human DNA polymerases β and γ at 37 °C, followed by 7 min at 80 °C.

A short description of series [1]: Chemical hydrolysis in aqueous buffers (PBS pH 7.3 / 8.0, citrate buffer pH 2.0), RP18-HPLC. It is filed as physicochemical. Particulars: for half-life: 25 mM citrate buffer, pH 2.0, 37 °C; for half-life at 1.9 mM: phosphate buffered saline. The method in brief: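 Compound incubated at 37 °C in PBS pH 7.3 or 8.0, or citrate/NaCl/HCl buffer adjusted to pH 2.0 with NaOH. Aliquots sampled over time, stored at −30 °C, and hydrolysis products quantified by RP18-HPLC with UV detection.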

The next series has as its system HIV-2 (ROD). Nature of the series: Anti-HIV replication assay, HIV-2 (ROD) in wild-type CEM/0 cells. It is filed as cell-based. To be noted: for EC50: Human immunodeficiency virus 2, CCRF-CEM, read-out: HIV-2 (ROD) EC50; for selectivity index (SI): CC50/EC50, HIV-2 (ROD) in CEM cells. The method in brief: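 Wild-type CEM/0 or thymidine kinase-deficient CEM/TK– T-cells (~3 × 10^5 cells/mL) were infected with 100 CCID50/mL HIV-2(ROD) in the presence of compound dilutions. After 4–5 days at 37 °C, virus-induced cytopathicity and syncytium formation were scored microscopically.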

The mark [2] stands for this setting: 25 mM PBS, pH 7.3, 37 °C, read-out: PBS pH 7.3 t1/2 (converted).
Where [3] appears, read: PBS, pH 8.0, 37 °C, read-out: PBS pH 8.0 t1/2 (converted).
Setting [4] is: wild-type CEM/0 cells, mean ± SD, n = 2–3.

As for `Cc1cn([C@H]2C=C[C@@H](COP(=O)(O)OP(=O)(O)OP(=O)(O)OP(=O)(O)O)O2)c(=O)[nH]c1=O` [d4T4P, 2′,3′-didehydro-2′,3′-dideoxythymidine-5′-tetraphosphate], the “substrate for HIV-RT (primer extension)” value at HIV-RT is on record as “substrate”. In series [1], this molecule showed a half-life above 150 h. Further, the half-life at 1.9 mM in series [1] (setting [2]) was 534 h; in series [1] (setting [3]), above 150 h. Also, the EC50 in the series on HIV-2 (ROD) (setting [4]) was 220 ± 92 nM.
For the molecule `CCCCCCCCCCCCCCCCCCOP(=O)(O)OP(=O)(O)OP(=O)(O)OP(=O)(O)OC[C@@H]1C=C[C@H](n2cc(C)c(=O)[nH]c2=O)O1` [compound 20, δ-(Alkyl-C18)-d4T4P], the “substrate for HIV-RT (primer extension)” value at HIV-RT was “substrates”. The half-life at 1.9 mM in series [1] (setting [2]) was 132 h. For the same molecule, the “selectivity index (SI)” value with HIV-2 (ROD) is recorded as above 200. In addition, in the series with HIV-2 (ROD) (setting [4]), the EC50 was determined as 500 ± 160 nM.
Take `CCCCCCCCCCCCCCCCCCP(=O)(OCCCC)OP(=O)(O)OP(=O)(O)OP(=O)(O)OC[C@@H]1C=C[C@H](n2cc(C)c(=O)[nH]c2=O)O1` (some centres unmarked) [5a, δ-(Alkyl-C4)-δ-C-(alkyl-C18)-d4T4P]: the “substrate for HIV-RT (primer extension)” value at HIV-RT is given as “good substrates”. In addition, the half-life in series [1] is above 150 h. Moreover, the half-life at 1.9 mM in series [1] (setting [2]) is above 1000 h; in series [1] (setting [3]) it was above 200 h. For the same molecule, in the series on HIV-2 (ROD), the EC50 is 330 ± 120 nM.
`CCCCCCCCCCCCCCCCCCP(=O)(O)OP(=O)(O)OP(=O)(O)OP(=O)(O)OC[C@@H]1C=C[C@H](n2cc(C)c(=O)[nH]c2=O)O1` [compound 24, δ-C-(Alkyl-C18)-d4T4P]: the “substrate for HIV-RT (primer extension)” value on HIV-RT is listed as “substrates”. Further, the half-life at 1.9 mM in series [1] (setting [2]) was above 1000 h. The EC50 in the series with HIV-2 (ROD) (setting [4]) is 240 ± 70 nM.
For `CCCCCCCCCCCCCCCCCCOP(=O)(OCCCC)OP(=O)(O)OP(=O)(O)OP(=O)(O)OC[C@@H]1C=C[C@H](n2cc(C)c(=O)[nH]c2=O)O1` (some centres unmarked) [4d, δ-(Alkyl-C4; alkyl-C18)-d4T4P], the “substrate for HIV-RT (primer extension)” value on HIV-RT was “good substrates”. This molecule showed a half-life in series [1] of 66 h. For the same molecule, the figures for the half-life at 1.9 mM in series [1] (setting [2]) and in series [1] (setting [3]) were 251 h and above 100 h, respectively. The “selectivity index (SI)” value with HIV-2 (ROD) was determined as 522. The EC50 in the series with HIV-2 (ROD) (setting [4]) came out at 84 ± 18 nM.
